Marks after values point to notes of the source that are not given here.
Tests used:
[1] = tested on: WT HIV-1 (NL4-3); test: Anti-HIV-1 activity against wild-type NL4-3 in TZM-bl cell lines
[2] = in vitro; conditions: human
[3] = tested on: NNRTI-resistant strain K103N+Y181C (RES056); conditions: MT-4 cells
[4] = tested on: WT HIV-1 (IIIB); conditions: MT-4 cells

Cc1cc(C#N)cc(C)c1Oc1nc(NC2CCCN(Cc3ccc(S(N)(=O)=O)cc3)CC2)nc2ccsc12 (stereo not drawn) [8a1, 4-((4-((4-(4-Cyano-2,6-dimethylphenoxy)thieno[3,2-d]-pyrimidin-2-yl)amino)azepan-1-yl)methyl)benzenesulfonamide]
SI (CC50/EC50) NL4-3 [1]: >100

Cc1cc(C#N)cc(C)c1Oc1nc(NC2CCCN(Cc3ccc(C(N)=O)cc3)CC2)nc2ccsc12 (stereo not drawn) [8a2, 4-((4-((4-(4-Cyano-2,6-dimethylphenoxy)thieno[3,2-d]-pyrimidin-2-yl)amino)azepan-1-yl)methyl)benzamide]
SI (CC50/EC50) NL4-3 [1]: X1^d

Cc1cc(C#N)cc(C)c1Oc1nc(NC2CC3CCC(C2)N3Cc2ccc(S(N)(=O)=O)cc2)nc2ccsc12 (stereo not drawn) [8b1, 4-((3-((4-(4-Cyano-2,6-dimethylphenoxy)thieno[3,2-d]-pyrimidin-2-yl)amino)-8-azabicyclo[3.2.1]octan-8-yl)methyl)benzenesulfonamide]
SI (CC50/EC50) NL4-3 [1]: X1^d

Cc1cc(C#N)cc(C)c1Oc1nc(NC2CC3CCC(C2)N3Cc2ccc(C(N)=O)cc2)nc2ccsc12 (stereo not drawn) [8b2, 4-((3-((4-(4-Cyano-2,6-dimethylphenoxy)thieno[3,2-d]-pyrimidin-2-yl)amino)-8-azabicyclo[3.2.1]octan-8-yl)methyl)benzamide]
SI (CC50/EC50) NL4-3 [1]: X1^d

Cc1cc(C#N)cc(C)c1Oc1nc(NC2CC3CCC(C2)N3Cc2cccc(C(N)=O)c2)nc2ccsc12 (stereo not drawn) [8b3, 3-((3-((4-(4-Cyano-2,6-dimethylphenoxy)thieno[3,2-d]-pyrimidin-2-yl)amino)-8-azabicyclo[3.2.1]octan-8-yl)methyl)benzamide]
SI (CC50/EC50) NL4-3 [1]: X1^d

Cc1cc(C#N)cc(C)c1Oc1nc(NC2CC3CCC(C2)N3Cc2ccc(S(C)(=O)=O)cc2)nc2ccsc12 (stereo not drawn) [8b4, 3,5-Dimethyl-4-((2-((8-(4-(methylsulfonyl)benzyl)-8-azabicyclo[3.2.1]octan-3-yl)amino)thieno[3,2-d]pyrimidin-4-yl)oxy)benzonitrile]
SI (CC50/EC50) NL4-3 [1]: X1^d

Cc1cc(C#N)cc(C)c1Oc1nc(NC2CC3CCC(C2)N3Cc2ccncc2)nc2ccsc12 (stereo not drawn) [8b5, 3,5-Dimethyl-4-((2-((8-(pyridin-4-ylmethyl)-8-azabicyclo-[3.2.1]octan-3-yl)amino)thieno[3,2-d]pyrimidin-4-yl)oxy)benzonitrile]
SI (CC50/EC50) NL4-3 [1]: X1^d

Cc1cc(C#N)cc(C)c1Oc1nc(N[C@@H]2CCN(Cc3ccc(C(N)=O)cc3)C2)nc2ccsc12 [8c2, (R)-4-((3-((4-(4-Cyano-2,6-dimethylphenoxy)thieno[3,2-d]-pyrimidin-2-yl)amino)pyrrolidin-1-yl)methyl)benzamide]
CC50 [2]: > 0.25 µM

Cc1cc(C#N)cc(C)c1Oc1nc(N[C@H]2CCN(Cc3cccc(C(N)=O)c3)C2)nc2ccsc12 [8d3, (S)-3-((3-((4-(4-Cyano-2,6-dimethylphenoxy)thieno[3,2-d]-pyrimidin-2-yl)amino)pyrrolidin-1-yl)methyl)benzamide]
SI (CC50/EC50) NL4-3 [1]: X1^d

Cc1cc(C#N)cc(C)c1Oc1nc(NC2CCN(Cc3ccncc3)CC2)nc2c1SCC2 [13a4, 3,5-Dimethyl-4-((2-((1-(pyridin-4-ylmethyl)piperidin-4-yl)amino)-6,7-dihydrothieno[3,2-d]pyrimidin-4-yl)oxy)benzonitrile]
SI RES056 (CC50/EC50) [3]: ≥2305 | SI IIIB (CC50/EC50) [4]: ≥40104

Cc1cc(C#N)cc(C)c1Oc1nc(NC2CCN(Cc3cccc(C(N)=O)c3)CC2)nc2c1SCC2 [13a6, 3-((4-((4-(4-Cyano-2,6-dimethylphenoxy)-6,7-dihydrothieno[3,2-d]pyrimidin-2-yl)amino)piperidin-1-yl)methyl)benzamide]
SI RES056 (CC50/EC50) [3]: ≥355 | SI IIIB (CC50/EC50) [4]: ≥8048

Cc1cc(C#N)cc(C)c1Oc1nc(NC2CCN(Cc3ccc(N)cc3)CC2)nc2c1CSC2 [13b4, 4-((2-((1-(4-Aminobenzyl)piperidin-4-yl)amino)-5,7-dihydrothieno[3,4-d]pyrimidin-4-yl)oxy)-3,5-dimethylbenzonitrile]
SI RES056 (CC50/EC50) [3]: >364 | SI IIIB (CC50/EC50) [4]: >30377

Cc1cc(C#N)cc(C)c1Oc1nc(NC2CCN(Cc3ccc(NS(C)(=O)=O)cc3)CC2)nc2c1CSC2 [13b5, N-(4-((4-((4-(4-Cyano-2,6-dimethylphenoxy)-5,7-dihydrothieno[3,4-d]pyrimidin-2-yl)amino)piperidin-1-yl)methyl)phenyl)methanesulfonamide]
SI RES056 (CC50/EC50) [3]: >42 | SI IIIB (CC50/EC50) [4]: >19670

Cc1cc(C#N)cc(C)c1Oc1nc(NC2CCN(Cc3ccc([N+](=O)[O-])cc3)CC2)nc2c1COC2 [13c5, 3,5-Dimethyl-4-((2-((1-(4-nitrobenzyl)piperidin-4-yl)amino)-5,7-dihydrofuro[3,4-d]pyrimidin-4-yl)oxy)benzonitrile]
SI RES056 (CC50/EC50) [3]: ≥22 | SI IIIB (CC50/EC50) [4]: ≥1497

Cc1cc(C#N)cc(C)c1Oc1nc(NC2CCN(Cc3ccc(C(N)=O)cc3)CC2)nc2c1CCC2 [13d2, 4-((4-((4-(4-Cyano-2,6-dimethylphenoxy)-6,7-dihydro-5H-cyclopenta[d]pyrimidin-2-yl)amino)piperidin-1-yl)methyl)benzamide]
SI RES056 (CC50/EC50) [3]: >1448 | SI IIIB (CC50/EC50) [4]: >40984

Cc1cc(C#N)cc(C)c1Oc1nc(NC2CCN(Cc3ccncc3)CC2)nc2c1CCC2 [13d4, 3,5-Dimethyl-4-((2-((1-(pyridin-4-ylmethyl)piperidin-4-yl)amino)-6,7-dihydro-5H-cyclopenta[d]pyrimidin-4-yl)oxy)benzonitrile]
SI RES056 (CC50/EC50) [3]: >5020 | SI IIIB (CC50/EC50) [4]: >147059

Cc1cc(C#N)cc(C)c1Oc1nc(NC2CCN(Cc3ccc(S(N)(=O)=O)cc3)CC2)nc2c1CCCC2 [13e1, 4-((4-((4-(4-Cyano-2,6-dimethylphenoxy)-5,6,7,8-tetrahydroquinazolin-2-yl)amino)piperidin-1-yl)methyl)benzenesulfonamide]
SI RES056 (CC50/EC50) [3]: >342 | SI IIIB (CC50/EC50) [4]: >37879

Cc1cc(C#N)cc(C)c1Oc1nc(NC2CCN(Cc3ccc(C(N)=O)cc3)CC2)nc2c1CCCC2 [13e2, 4-((4-((4-(4-Cyano-2,6-dimethylphenoxy)-5,6,7,8-tetrahydroquinazolin-2-yl)amino)piperidin-1-yl)methyl)benzamide]
SI RES056 (CC50/EC50) [3]: >799 | SI IIIB (CC50/EC50) [4]: >38709

Cc1cc(C#N)cc(C)c1Oc1nc(NC2CCN(Cc3ccc(S(C)(=O)=O)cc3)CC2)nc2c1CCCC2 [13e3, 3,5-Dimethyl-4-((2-((1-(4-(methylsulfonyl)benzyl)piperidin-4-yl)amino)-5,6,7,8-tetrahydroquinazolin-4-yl)oxy)benzonitrile]
SI RES056 (CC50/EC50) [3]: >4032 | SI IIIB (CC50/EC50) [4]: >33333

Cc1cc(C#N)cc(C)c1Oc1nc(NC2CCN(Cc3ccc(C(N)=O)cc3)CC2)nc2c1SCCC2 [13f2, 4-((4-((4-(4-Cyano-2,6-dimethylphenoxy)-7,8-dihydro-6H-thiopyrano[3,2-d]pyrimidin-2-yl)amino)piperidin-1-yl)methyl)benzamide]
SI RES056 (CC50/EC50) [3]: >476 | SI IIIB (CC50/EC50) [4]: >14767

Cc1cc(C#N)cc(C)c1Oc1nc(NC2CCN(Cc3ccc(S(C)(=O)=O)cc3)CC2)nc2c1SCCC2 [13f3, 3,5-Dimethyl-4-((2-((1-(4-(methylsulfonyl)benzyl)piperidin-4-yl)amino)-7,8-dihydro-6H-thiopyrano[3,2-d]pyrimidin-4-yl)oxy)benzonitrile]
SI RES056 (CC50/EC50) [3]: ≥34.6 | SI IIIB (CC50/EC50) [4]: ≥872

— article PMC7441537 (Journal of medicinal chemistry, 2019)
